{"source": "patent US6020521A", "about": "“Macrolide LHRH antagonists” (Abbott Laboratories, priority 1998, dated 2000)", "note": "pKi: −log10 of the molar value."}
{"molecular_target": "T1, LHRH rat pituitary receptor (Rattus norvegicus, UniProt P30969)", "T1 construct": "from tissue; host or cells: rat pituitary", "T1 sequence (P30969 1-327)": "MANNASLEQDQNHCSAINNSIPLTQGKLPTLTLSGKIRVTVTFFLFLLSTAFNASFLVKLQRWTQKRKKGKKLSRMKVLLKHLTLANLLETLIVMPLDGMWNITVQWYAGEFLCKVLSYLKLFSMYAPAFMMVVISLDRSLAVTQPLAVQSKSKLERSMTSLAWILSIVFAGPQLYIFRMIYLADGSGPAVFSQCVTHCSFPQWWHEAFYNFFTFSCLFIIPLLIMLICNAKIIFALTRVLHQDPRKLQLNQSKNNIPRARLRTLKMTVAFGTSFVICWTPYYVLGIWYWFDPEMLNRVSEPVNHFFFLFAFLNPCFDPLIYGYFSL", "experiment": "LHRH rat pituitary receptor binding (pKI)", "conditions": "receptor binding affinity, negative logarithm of the equilibrium dissociation constants", "experimental": "Representative compounds of the present invention were evaluated in in vitro tests for LHRH rat pituitary receptor binding (pKI) and for LH inhibition from rat pituitary cells for antagonist potency (pA2). The tests employed the methods detailed in F. Haviv, et al. J. Med. Chem., 32: 2340-2344 (1989). The receptor binding affinity (pKI) is the negative logarithm of the equilibrium dissociation constants."}
{"smiles": "CC[C@H]1OC(=O)[C@H](C)[C@@H](OC(=O)N2C(=O)OC[C@@H]2C)[C@H](C)[C@@H](O[C@@H]2O[C@H](C)C[C@H](NC(C)C)[C@H]2O)[C@](C)(OC)C[C@@H](C)C(=O)[C@H](C)[C@H]2N(CCc3ccc(Cl)cc3)C(=O)O[C@]12C", "note": "[Example 7, 11-Deoxy-11-[carboxy(4-chlorophenethyl)amino]-5-O-(3'-bis-N-desmethyl-3'-N-isopropyl)desosaminyl-3-O-[4-(S)-methyl-oxazolidin-2-one]carbamoyl-6-O-methyl-erythronolide A 11,12-(cyclic carbamate)]", "pKi": 8.45}
{"smiles": "CC[C@H]1OC(=O)[C@H](C)[C@@H](OC(=O)N2COC[C@H]2C)[C@H](C)[C@@H](O[C@@H]2O[C@H](C)C[C@H](N(C)C(C)C)[C@H]2O)[C@](C)(OC)C[C@@H](C)C(=O)[C@H](C)[C@H]2N(CCc3ccc(Cl)cc3)C(=O)O[C@]12C", "note": "[Example 8, 11-Deoxy-11-[carboxy(4-chlorophenethyl)amino]-5-O-(3'-N-desmethyl-3'-N-isopropyl)desosaminyl-3-O-[4-(R)-methyl-oxazolidine]carbamoyl-6-O-methyl-erythronolide A 11,12-(cyclic carbamate)]", "pKi": 7.93}
{"smiles": "CC[C@H]1OC(=O)[C@H](C)[C@@H](OC(=O)C2CCOC2)[C@H](C)[C@@H](O[C@@H]2O[C@H](C)C[C@H](N(C)C(C)C)[C@H]2O)[C@](C)(OC)C[C@@H](C)C(=O)[C@H](C)[C@H]2N(CCc3ccc(Cl)cc3)C(=O)O[C@]12C", "note": "(stereo partly drawn) [Example 9, 11-Deoxy-11-[carboxy(4-chlorophenethyl)amino]-5-O-(3'-N-desmethyl-3'-N-isopropyl)desosaminyl-3-O-(tetrahydro-3-furoyl)-6-O-methyl-erythronolide A 11 12-(cyclic carbamate)]", "p KI": 7.85}
{"smiles": "CCC1OC(=O)C(C)C(OC(=O)C2CCOC2)C(C)C(OC2OC(C)CC(NC(C)C)C2O)C(C)(OC)CC(C)C(=O)C(C)C2N(CCc3ccc(Cl)cc3)C(=O)OC12C", "note": "(stereo not drawn) [Example 10, 11-Deoxy-11-[carboxy(4-chlorophenethyl)amino]-5-O-(3'-bis-N-desmethyl-3'-N-isopropyl)desosaminyl-3-O-(tetrahydro-3-furoyl)-6-O-methyl-erythronolide A 11,12-(cyclic carbamate)]", "p KI": 8.09}
{"smiles": "CC[C@H]1OC(=O)[C@H](C)[C@@H](OC(=O)N2C(=O)OC[C@@H]2C)[C@H](C)[C@@H](O[C@@H]2O[C@H](C)C[C@H](N(C)C)[C@H]2O)[C@](C)(OC)C[C@@H](C)C(=O)[C@H](C)[C@H]2N(CCc3ccc(Cl)c(Cl)c3)C(=O)O[C@]12C", "note": "[Example 11, 11-Deoxy-11-[carboxy(3,4-dichlorophenethyl)amino]-3-O-[4-(S)-methyl-oxazolidin-2-one]carbamoyl-5-O-desosaminyl-6-O-methyl-erythronolide A 11,12-(cyclic carbamate)]", "pKi": 8.50}
{"smiles": "CC[C@H]1OC(=O)[C@H](C)[C@@H](OC(=O)N2C(=O)OC[C@@H]2C)[C@H](C)[C@@H](O[C@@H]2O[C@H](C)C[C@H](N(C)C3CCC3)[C@H]2O)[C@](C)(OC)C[C@@H](C)C(=O)[C@H](C)[C@H]2N(CCc3ccc(Cl)c(Cl)c3)C(=O)O[C@]12C", "note": "[Example 13, 11-Deoxy-11-[carboxy(3,4-dichlorophenethyl)amino]-3-O-[4-(S)-methyl-oxazolidin-2-one]carbamoyl-5-O-(3'-N-desmethyl-3'-N-cyclobutyl)desosaminyl-6-O-methyl-erythronolide A 11,12-(cyclic carbamate)]", "pKi": 8.51}
{"smiles": "CC[C@H]1OC(=O)[C@H](C)[C@@H](OC(=O)N2C(=O)OC[C@@H]2C)[C@H](C)[C@@H](O[C@@H]2O[C@H](C)C[C@H](N(C)C3CCCCC3)[C@H]2O)[C@](C)(OC)C[C@@H](C)C(=O)[C@H](C)[C@H]2N(CCc3ccc(Cl)c(Cl)c3)C(=O)O[C@]12C", "note": "[Example 15, 11-Deoxy-11-[carboxy(3,4-dichlorophenethyl)amino]-3-O-[4-(S)-methyl-oxazolidin-2-one]carbamoyl-5-O-(3'-N-desmethyl-3'-N-cyclohexyl)desosaminyl-6-O-methyl-erythronolide A 11,12-(cyclic carbamate)]", "pKi": 8.41}
{"smiles": "CCCN(C)[C@H]1C[C@@H](C)O[C@@H](O[C@@H]2[C@@H](C)[C@H](OC(=O)N3C(=O)OC[C@@H]3C)[C@@H](C)C(=O)O[C@H](CC)[C@@]3(C)OC(=O)N(CCc4ccc(Cl)c(Cl)c4)[C@@H]3[C@@H](C)C(=O)[C@H](C)C[C@@]2(C)OC)[C@@H]1O", "note": "[Example 16, 11-Deoxy-11-[carboxy(3,4-dichlorophenethyl)amino]-3-O-[4-(S)-methyl-oxazolidin-2-one]carbamoyl-5-O-(3'-N-desmethyl-3'-N-n-propyl)desosaminyl-6-O-methyl-erythronolide A 11,12-(cyclic carbamate)]", "pKi": 8.40}
{"smiles": "CC[C@H]1OC(=O)[C@H](C)[C@@H](OC(=O)N2C(=O)OC[C@@H]2C)[C@H](C)[C@@H](O[C@@H]2O[C@H](C)C[C@H](N(C)CC(C)C)[C@H]2O)[C@](C)(OC)C[C@@H](C)C(=O)[C@H](C)[C@H]2N(CCc3ccc(Cl)c(Cl)c3)C(=O)O[C@]12C", "note": "[Example 17, 11-Deoxy-11-[carboxy(3,4-dichlorophenethyl)amino]-3-O-[4-(S)-methyl-oxazolidin-2-one]carbamoyl-5-O-(3'-N-desmethyl-3'-N-isobutyl)desosaminyl-6-O-methyl-erythronolide A 11,12-(cyclic carbamate)]", "pKi": 9.25}
{"smiles": "CC[C@H]1OC(=O)[C@H](C)[C@@H](OC(=O)N2C(=O)OC[C@@H]2C)[C@H](C)[C@@H](O[C@@H]2O[C@H](C)C[C@H](N(C)CC3CCC3)[C@H]2O)[C@](C)(OC)C[C@@H](C)C(=O)[C@H](C)[C@H]2N(CCc3ccc(Cl)c(Cl)c3)C(=O)O[C@]12C", "note": "[Example 18, 11-Deoxy-11-[carboxy(3,4-dichlorophenethyl)amino]-3-O-[4-(S)-methyl-oxazolidin-2-one]carbamoyl-5-O-(3'-N-desmethyl-3'-N-cyclobutylmethyl)desosaminyl-6-O-methyl-erythronolide A 11,12-(cyclic carbamate)]", "pKi": 9.03}
{"smiles": "CC[C@H]1OC(=O)[C@H](C)[C@@H](OC(=O)N2C(=O)OC[C@@H]2C)[C@H](C)[C@@H](O[C@@H]2O[C@H](C)C[C@H](N(CC)C(C)C)[C@H]2O)[C@](C)(OC)C[C@@H](C)C(=O)[C@H](C)[C@H]2N(CCc3ccc(Cl)c(Cl)c3)C(=O)O[C@]12C", "note": "[Example 20, 11-Deoxy-11-[carboxy(3,4-dichlorophenethyl)amino]-3-O-[4-(S)-methyl-oxazolidin-2-one]carbamoyl-5-O-(3'-bis-N-desmethyl-3'-N-ethyl-3'-N-isopropyl)desosaminyl-6-O-methyl-erythronolide A 11,12-(cyclic carbamate)]", "pKi": 9.23}
{"smiles": "CCCN(C(C)C)[C@H]1C[C@@H](C)O[C@@H](O[C@@H]2[C@@H](C)[C@H](OC(=O)N3C(=O)OC[C@@H]3C)[C@@H](C)C(=O)O[C@H](CC)[C@@]3(C)OC(=O)N(CCc4ccc(Cl)c(Cl)c4)[C@@H]3[C@@H](C)C(=O)[C@H](C)C[C@@]2(C)OC)[C@@H]1O", "note": "[Example 21, 11-Deoxy-11-[carboxy(3,4-dichlorophenethyl)amino]-3-O-[4-(S)-methyl-oxazolidin-2-one]carbamoyl-5-O-(3'-bis-N-desmethyl-3'-N-n-propyl-3'-N-isopropyl)desosaminyl-6-O-methyl-erythronolide A 11,12-(cyclic carbamate)]", "pKi": 9.61}
{"smiles": "CC[C@H]1OC(=O)[C@H](C)[C@@H](OC(=O)N2C(=O)OC[C@@H]2C)[C@H](C)[C@@H](O[C@@H]2O[C@H](C)C[C@H](N(CC3CC3)C(C)C)[C@H]2O)[C@](C)(OC)C[C@@H](C)C(=O)[C@H](C)[C@H]2N(CCc3ccc(Cl)c(Cl)c3)C(=O)O[C@]12C", "note": "[Example 22, 11-Deoxy-11-[carboxy(3,4-dichlorophenethyl)amino]-3-O-[4-(S)-methyl-oxazolidin-2-one]carbamoyl-5-O-(3'-bis-N-desmethyl-3'-N-cyclopropylmethyl-3'-N-isopropyl)desosaminyl-6-O-methyl-erythronolide A 11,12-(cyclic carbamate)]", "pKi": 10.13}
{"smiles": "CC[C@H]1OC(=O)[C@H](C)[C@@H](OC(=O)N2C(=O)OC[C@@H]2C)[C@H](C)[C@@H](O[C@@H]2O[C@H](C)C[C@H](N(C)CC3CC3)[C@H]2O)[C@](C)(OC)C[C@@H](C)C(=O)[C@H](C)[C@H]2N(CCc3ccc(Cl)cc3)C(=O)O[C@]12C", "note": "[Example 23, 11-Deoxy-11-[carboxy(4-chlorophenethyl)amino]-3-O-[4-(S)-methyl-oxazolidin-2-one]carbamoyl-5-O-(3'-N-desmethyl-3'-N-cyclopropylmethyl)desosaminyl-6-O-methyl-erythronolide A 11,12-(cyclic carbamate)]", "pKi": 8.84}
{"smiles": "CC[C@H]1OC(=O)[C@H](C)[C@@H](OC(=O)N2C(=O)OC[C@@H]2C)[C@H](C)[C@@H](O[C@@H]2O[C@H](C)C[C@H](N(C)C3CCC3)[C@H]2O)[C@](C)(OC)C[C@@H](C)C(=O)[C@H](C)[C@H]2N(CCc3ccc(Cl)cc3)C(=O)O[C@]12C", "note": "[Example 24, 11-Deoxy-11-[carboxy(4-chlorophenethyl)amino]-3-O-[4-(S)-methyl-oxazolidin-2-one]carbamoyl-5-O-(3'-N-desmethyl-3'-N-cyclobutyl)desosaminyl-6-O-methyl-erythronolide A 11,12-(cyclic carbamate)]", "pKi": 9.60}
